According to publication PMC4710522, “A Novel Triazolopyridine-Based Spleen Tyrosine Kinase Inhibitor That Arrests Joint Inflammation” (PLoS ONE, 2016):
“And” between values parts separate entries of the source, which are not always exact repeats. Equal entries are not always repeated.

How the values were obtained:
FGFR4_h = target: T1, FGFR4_h (Homo sapiens, UniProt P22455); assay: SelectScreen kinase assay; type: biochemical; settings: KM ATP, read-out: % control
T1 construct: purchased Life Technologies (Invitrogen) SelectScreen, Z'-LYTE / Adapta
T1 sequence (P22455 22-802): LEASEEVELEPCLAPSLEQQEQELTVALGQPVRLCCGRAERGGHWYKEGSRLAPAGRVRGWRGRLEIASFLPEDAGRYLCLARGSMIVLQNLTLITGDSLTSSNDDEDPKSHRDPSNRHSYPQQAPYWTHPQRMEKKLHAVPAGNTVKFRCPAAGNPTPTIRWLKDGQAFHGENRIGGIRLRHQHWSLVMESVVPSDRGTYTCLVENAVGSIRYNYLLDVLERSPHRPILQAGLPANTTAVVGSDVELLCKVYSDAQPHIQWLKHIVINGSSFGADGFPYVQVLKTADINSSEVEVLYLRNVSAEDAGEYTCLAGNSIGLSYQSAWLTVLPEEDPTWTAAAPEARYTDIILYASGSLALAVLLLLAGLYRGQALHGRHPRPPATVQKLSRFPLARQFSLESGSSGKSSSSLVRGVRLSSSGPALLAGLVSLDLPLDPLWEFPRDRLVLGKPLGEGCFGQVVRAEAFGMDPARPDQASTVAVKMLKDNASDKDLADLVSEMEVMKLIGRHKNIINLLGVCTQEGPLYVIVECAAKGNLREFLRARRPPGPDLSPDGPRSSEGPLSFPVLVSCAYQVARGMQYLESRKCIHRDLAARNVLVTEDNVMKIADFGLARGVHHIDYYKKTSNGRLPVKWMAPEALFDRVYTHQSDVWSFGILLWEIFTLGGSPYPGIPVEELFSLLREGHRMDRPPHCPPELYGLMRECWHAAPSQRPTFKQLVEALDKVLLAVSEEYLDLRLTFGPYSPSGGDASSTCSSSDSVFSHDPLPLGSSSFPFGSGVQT

Flt4_h = Flt4_h (Homo sapiens, UniProt P35916); assay: SelectScreen kinase assay; type: biochemical
Sequence of Flt4_h (P35916 25-1363): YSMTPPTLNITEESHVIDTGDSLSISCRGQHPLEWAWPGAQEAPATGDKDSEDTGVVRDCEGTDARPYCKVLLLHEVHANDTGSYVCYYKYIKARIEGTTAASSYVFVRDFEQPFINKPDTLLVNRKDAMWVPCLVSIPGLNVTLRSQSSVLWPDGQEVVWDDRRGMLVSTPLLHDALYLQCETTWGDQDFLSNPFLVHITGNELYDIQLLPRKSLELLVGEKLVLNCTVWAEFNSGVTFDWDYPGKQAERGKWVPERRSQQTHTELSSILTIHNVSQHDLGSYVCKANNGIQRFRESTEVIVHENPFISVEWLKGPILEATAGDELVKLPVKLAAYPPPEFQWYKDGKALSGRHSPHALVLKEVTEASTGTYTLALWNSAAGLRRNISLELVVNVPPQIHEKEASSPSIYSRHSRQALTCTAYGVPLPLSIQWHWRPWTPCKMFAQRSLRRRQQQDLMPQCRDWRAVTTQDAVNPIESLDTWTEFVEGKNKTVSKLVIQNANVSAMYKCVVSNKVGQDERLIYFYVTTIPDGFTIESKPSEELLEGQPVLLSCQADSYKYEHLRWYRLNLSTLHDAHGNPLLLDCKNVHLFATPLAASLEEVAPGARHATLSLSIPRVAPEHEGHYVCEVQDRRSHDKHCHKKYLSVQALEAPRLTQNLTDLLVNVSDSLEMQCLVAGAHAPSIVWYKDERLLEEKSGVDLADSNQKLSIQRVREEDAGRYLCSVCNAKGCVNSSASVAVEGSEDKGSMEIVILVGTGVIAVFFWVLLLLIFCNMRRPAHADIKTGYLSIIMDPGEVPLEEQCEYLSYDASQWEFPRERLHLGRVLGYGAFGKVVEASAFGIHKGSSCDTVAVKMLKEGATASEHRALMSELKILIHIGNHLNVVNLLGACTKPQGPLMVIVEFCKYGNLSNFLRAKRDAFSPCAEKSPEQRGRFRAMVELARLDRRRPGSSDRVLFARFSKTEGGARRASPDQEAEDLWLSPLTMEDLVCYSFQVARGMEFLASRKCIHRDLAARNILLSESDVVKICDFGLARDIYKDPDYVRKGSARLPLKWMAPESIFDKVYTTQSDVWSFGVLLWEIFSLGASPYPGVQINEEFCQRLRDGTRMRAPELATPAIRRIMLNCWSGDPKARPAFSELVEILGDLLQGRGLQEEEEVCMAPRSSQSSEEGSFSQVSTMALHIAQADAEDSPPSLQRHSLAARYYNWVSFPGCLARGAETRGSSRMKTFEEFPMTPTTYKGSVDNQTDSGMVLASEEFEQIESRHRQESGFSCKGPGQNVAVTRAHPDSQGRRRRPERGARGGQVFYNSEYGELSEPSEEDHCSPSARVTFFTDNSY

cSRC_h = target: T2, cSRC_h (Homo sapiens, UniProt P12931); assay: SelectScreen kinase assay; type: biochemical; settings: KM ATP, read-out: % control
T2 construct: purchased Life Technologies (Invitrogen) SelectScreen, Z'-LYTE / Adapta
T2 sequence (P12931 whole entry): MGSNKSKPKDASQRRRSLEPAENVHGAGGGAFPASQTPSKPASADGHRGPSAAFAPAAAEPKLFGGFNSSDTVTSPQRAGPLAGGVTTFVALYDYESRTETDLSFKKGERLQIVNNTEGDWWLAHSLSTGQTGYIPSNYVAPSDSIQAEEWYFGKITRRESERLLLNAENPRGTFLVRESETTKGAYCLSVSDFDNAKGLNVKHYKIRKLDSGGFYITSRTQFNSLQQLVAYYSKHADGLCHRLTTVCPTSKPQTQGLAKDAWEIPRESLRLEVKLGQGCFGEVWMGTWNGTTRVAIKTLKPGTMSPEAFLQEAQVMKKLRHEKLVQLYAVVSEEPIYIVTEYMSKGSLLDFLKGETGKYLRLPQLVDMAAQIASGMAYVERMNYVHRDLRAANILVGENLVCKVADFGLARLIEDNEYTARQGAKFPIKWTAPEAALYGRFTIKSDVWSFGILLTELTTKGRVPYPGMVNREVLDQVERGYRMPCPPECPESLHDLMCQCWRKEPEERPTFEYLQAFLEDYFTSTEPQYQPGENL

PKC-eta_h = target: T3, PKC-eta_h (Homo sapiens, UniProt P24723); assay: SelectScreen kinase assay; type: biochemical; settings: KM ATP, read-out: % control
T3 construct: purchased Life Technologies (Invitrogen) SelectScreen, Z'-LYTE / Adapta
T3 sequence (P24723 whole entry): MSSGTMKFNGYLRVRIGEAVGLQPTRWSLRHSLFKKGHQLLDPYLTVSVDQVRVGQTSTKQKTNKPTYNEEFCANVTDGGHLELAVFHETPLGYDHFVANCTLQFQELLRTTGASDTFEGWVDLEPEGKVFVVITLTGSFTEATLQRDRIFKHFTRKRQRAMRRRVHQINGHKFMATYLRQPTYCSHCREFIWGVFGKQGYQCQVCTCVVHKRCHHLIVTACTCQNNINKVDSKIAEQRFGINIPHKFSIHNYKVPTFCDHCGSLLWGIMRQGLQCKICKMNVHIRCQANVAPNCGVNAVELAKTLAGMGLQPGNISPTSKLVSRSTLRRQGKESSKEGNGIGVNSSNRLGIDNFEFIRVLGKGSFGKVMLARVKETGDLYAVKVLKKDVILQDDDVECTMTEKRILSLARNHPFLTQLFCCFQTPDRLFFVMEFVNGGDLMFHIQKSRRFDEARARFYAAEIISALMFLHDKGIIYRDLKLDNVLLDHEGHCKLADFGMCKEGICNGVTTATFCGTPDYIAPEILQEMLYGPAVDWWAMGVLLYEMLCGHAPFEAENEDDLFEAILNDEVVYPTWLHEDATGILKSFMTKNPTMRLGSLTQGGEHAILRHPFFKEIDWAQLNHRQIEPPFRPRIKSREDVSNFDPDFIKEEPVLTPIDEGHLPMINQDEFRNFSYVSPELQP

[1] = target: T4, Tel-Syk fusion protein in HEK293 cells (Homo sapiens, UniProt P41212+P43405); assay: Tel-Syk biomarker assay (in-cell western, Syk Y525/526 phosphorylation); type: cell-based
T4 construct: human Syk (NM_003177.5) kinase domain corresponding to amino acids 341–612; myristoylation motif (N); expressed in transfected cells
T4 sequence (P41212+P43405 fused): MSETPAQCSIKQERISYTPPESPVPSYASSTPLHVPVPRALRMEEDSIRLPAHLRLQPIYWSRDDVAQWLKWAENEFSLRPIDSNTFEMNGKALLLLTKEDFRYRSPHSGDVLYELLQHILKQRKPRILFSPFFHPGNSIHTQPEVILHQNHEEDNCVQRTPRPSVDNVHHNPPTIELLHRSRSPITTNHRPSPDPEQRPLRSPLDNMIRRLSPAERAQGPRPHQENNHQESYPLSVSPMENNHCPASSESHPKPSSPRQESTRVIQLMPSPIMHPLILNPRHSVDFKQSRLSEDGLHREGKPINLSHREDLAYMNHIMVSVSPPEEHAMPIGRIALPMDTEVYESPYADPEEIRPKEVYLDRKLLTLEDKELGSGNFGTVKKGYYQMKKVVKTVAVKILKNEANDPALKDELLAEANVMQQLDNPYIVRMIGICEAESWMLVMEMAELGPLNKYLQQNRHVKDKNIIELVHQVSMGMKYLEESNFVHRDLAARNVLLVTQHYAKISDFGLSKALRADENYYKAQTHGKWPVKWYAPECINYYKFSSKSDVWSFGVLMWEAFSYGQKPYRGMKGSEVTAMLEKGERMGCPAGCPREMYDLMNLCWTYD
Protocol: HEK293 T-REx™ (Life Technologies, Grand Island, NY) stably transfected with human TEL-Syk (cloned as described prior section DNA constructs) were plated on black poly-D-lysine coated 96-well plates (BD Biosciences, San Diego, CA) in culture media containing tetracycline-free fetal bovine serum (Clontech, MountainView, CA) for 16 hours in a tissue culture incubator. Tel-Syk expression was induced for 6 hours in fresh growth media containing 1 μg/ml tetracycline (Sigma Chemicals, St. Louis, MO). […] Plates were blocked with Odyssey Blocking Buffer for 90 minutes at room temperature and incubated overnight at 4°C on a rotating platform with rabbit phospho-Syk (1:1000) and mouse V5 (1:2500) primary antibodies diluted in Odyssey Blocking Buffer. The plates were washed 5 times with 1X PBS + 0.1% Tween-20, incubated for 1 hour at room temperature with anti-rabbit IR680 (1:1000) and anti-mouse IR800CW (1:1000) secondary antibodies diluted in Odyssey Blocking Buffer, and washed 5 additional times with 1X PBS + 0.1% Tween-20 at room temperature. The plates were scanned on the Li-Cor Odyssey instrument (Li-Cor Biosciences, Lincoln, NE) in the 700 and 800 channels.
For the TEL-Syk assay, the intensity values for the 700 and 800 channel were exported as text files in ActivityBase (IDBS, Guildford, UK) to derive the ratios that reflect kinase activity. […]

rat pharmacokinetics = type: in vivo; settings: Sprague-Dawley, plasma
Protocol: Male and Female Sprague-dawley rats with jugular vein cannulation were obtained from Charles River Laboratories. All rats were maintained under standard conditions with access to food and water ad libitum. For intravenous (i.v.) dosing, CC-509 was dissolved in DMA/PEG400 (15/85, V/V). A dose of 2 mg/kg was administered to three male rats via jugular vein cannula with a dosing volume of 2 mL/kg followed by flushing 0.5 mL saline through the cannula. Blood were collected at 0.083, 0.25, 0.5, 1, 2, 4, 6, 8 and 24hr post dose. Plasma samples were separated by centrifugation of blood and stored at -20°C until analysis. For oral administration, four female rats (220–250g) were fasted for 12hr but allowed to access water prior to the dosing. CC-509 was formulated in 20% Captisol as a solution and was administered to the rats at 10 mg/kg by oral gavage with a dosing volume of 5mL/kg. Food was returned to the rats 2hr post dosing. Blood samples were collected at 0.5, 1, 2, 4, 6, 8 and 24hr post dose. Plasma samples were separated by centrifugation of blood and stored at -20°C until analysis. Plasma concentrations of CC-509 were quantified by a LC/MS/MS method. A total of 50 microliters (μL) of each plasma sample was extracted with three volumes of mixed solvent (methanol:acetonitrile (1:1). The extracted samples were filtered through a filtration plate (0.45μm, Varian, Inc.) and the filtrates were injected onto a LC-MS system. The LC-MS system consisted of a ThermoScientific (Waltham, MA) TSQ Quantum Ultra™ Mass Spectrometer coupled with a Thermo Accela™ ultra-high pressure liquid chromatogram (UPLC) system. Separation was achieved on a Thermo Hypersil Gold™ column (50 x 2.1 mm, 1.9 μm) by running a linear gradient of mobile phase at a flow rate of 0.5 mL/min. Mobile phase A and B consisted of 0.1% formic acid in water and 0.1% formic acid in methanol, respectively. Quantitation was performed using selected reaction monitoring (SRM) at the transition m/z 448 to m/z 364 for CC-509. PK parameters in plasma were estimated by WinNonLin software (Pharsight, Princeton, NJ) using non-compartmental analysis. For i.v. dosing, plasma clearance (CLp), volume distribution at steady-state (Vss) and mean residence time (MRT) were estimated. For oral administration, the maximum plasma concentration (Cmax), the time when the maximum plasma concentration is reached (Tmax) and area under the curve from 0 to infinity (AUC0-inf) were calculated.

MEK2_h = target: T5, MEK2_h (Homo sapiens, UniProt P36507); assay: SelectScreen kinase assay; type: biochemical; settings: 100 µM ATP, read-out: % control
T5 construct: purchased Life Technologies (Invitrogen) SelectScreen, Z'-LYTE / Adapta
T5 sequence (P36507 whole entry): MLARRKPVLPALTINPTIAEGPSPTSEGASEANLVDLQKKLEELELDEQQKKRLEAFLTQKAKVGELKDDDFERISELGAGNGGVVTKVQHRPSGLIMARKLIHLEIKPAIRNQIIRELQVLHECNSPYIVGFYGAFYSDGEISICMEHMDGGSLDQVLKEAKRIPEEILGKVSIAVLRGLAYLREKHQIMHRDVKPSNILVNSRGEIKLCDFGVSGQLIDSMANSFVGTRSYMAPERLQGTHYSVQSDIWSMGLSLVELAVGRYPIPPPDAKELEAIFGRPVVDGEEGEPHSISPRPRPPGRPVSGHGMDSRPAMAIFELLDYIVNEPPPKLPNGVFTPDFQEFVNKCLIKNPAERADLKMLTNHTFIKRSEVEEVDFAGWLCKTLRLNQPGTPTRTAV

[2] = test system: rat passive cutaneous anaphylaxis model; settings: 10 mg/kg dose; cited from earlier work

| Compound | remaining activity at 3 µM (FGFR4_h) [%] | remaining activity at 3 µM (Flt4_h; 3 µM, KM ATP, read-out: % control) [%] | IC50 (Flt4_h; 10-point dose-response, commercial vendor) | remaining activity at 3 µM (cSRC_h) [%] | remaining activity at 3 µM (PKC-eta_h) [%] | IC50 [1] [nM] | AUC(0-inf) (rat pharmacokinetics; iv, i.v. 2 mg/kg, male rats) [µM·h] | clearance (rat pharmacokinetics; iv, i.v. 2 mg/kg, male rats, read-out: clearance (CL)) [mL/min/kg] | MRT (rat pharmacokinetics; iv, i.v. 2 mg/kg, male rats, read-out: mean residence time (MRT)) [h] | Vd (rat pharmacokinetics; iv, i.v. 2 mg/kg, male rats, read-out: volume of distribution (Vss)) [L/kg] | AUC(0-inf) (rat pharmacokinetics; oral 10 mg/kg, female rats) [µM·h] | Cmax (rat pharmacokinetics; oral 10 mg/kg, female rats) [µM] | Tmax (rat pharmacokinetics; oral 10 mg/kg, female rats, read-out: time of maximal plasma concentration (converted)) [h] | remaining activity at 3 µM (MEK2_h) [%] | effect in the PCA model [2] |
| --- | --- | --- | --- | --- | --- | --- | --- | --- | --- | --- | --- | --- | --- | --- | --- |
| c1cc(CC2CCOCC2)n2nc(Nc3ccc4c(NC5CCOCC5)n[nH]c4c3)nc2c1 [CC-509, [3-(2H-3,4,5,6-tetrahydropyran-4-ylamino)(1H-indazol-6-yl)][5-(2H-3,4,5,6-tetrahydropyran-4-ylmethyl)(2H-1,2,4-triazolo[1,5-a]pyridin-2-yl)]amine] | 68 | 1 | 50 nM and 53.9 nM | 67 | 102 | 610 ± 190 | 4.02 ± 0.7 | 18.9 ± 3.5 | 2.3 ± 1.5 | 2.8 ± 2.36 | 12 ± 1 | 4.4 ± 0.2 | 0.5 | 73 | – |
| COc1cc(Nc2ncc(F)c(Nc3ccc4c(n3)NC(=O)C(C)(C)O4)n2)cc(OC)c1OC [R406, reference compound] | – | – | – | – | – | – | – | – | – | – | – | – | – | – | statistically significant effect |
